The values that follow are results of earlier work, collected in US20240423197A1, “KIT FOR PREPARING HERBICIDAL APPLICATION MIXTURES” (BAYER CROPSCIENCE LP, priority 2021, published 2024).

The conditions of the data set: known HLB value predetermined based on estimation by Griffin's method.

“Polysorbate 80 (polyoxyethylene sorbitan monooleate) [Tween® 80]”: the HLB was 15.
Consider Sorbitan monooleate [Span® 80], for which the HLB is on record as 4.3.
